Experimental data from article PMC5114273, “Activity of Scorpion Venom-Derived Antifungal Peptides against Planktonic Cells of Candida spp. and Cryptococcus neoformans and Candida albicans Biofilms” (Frontiers in Microbiology, 2016).
Ends that are not written are not given here.

Legend:
[1] = test system: Candida spp. and C. neoformans; test: Broth microdilution antifungal assay, summary over the strains tested; assay type: cell-based, Candida spp.; Cryptococcus neoformans; conditions: data not shown
Text: (§1) Candida albicans strain SC 5314 (ATCC MYA-2876) was provided by Dr. Joshua Nosanchuk (New York, NY, USA). C. glabrata ATCC 90030, C. parapsilosis ATCC 22019, and C. tropicalis ATCC 750 were provided by Dr. Érika Kioshima (Universidade Estadual de Maringá, Paraná, Brazil). C. neoformans var. grubii strain H99 (serotype A, ATCC 208821) was provided by Dr. John Perfect (Durham, NC, USA). C. neoformans var. neoformans B3501 (serotype D, ATCC 34873) was obtained from ATCC (Manassas, VA, USA). All strains were stored as frozen stocks in 35% glycerol at -80°C. Before each experiment, all Candida spp. strains were grown in Sabouraud’s dextrose broth overnight at 30°C with agitation. C. neoformans strains were grown in the same conditions for 24 h. Fungal cells were collected by centrifugation, washed three times in phosphate buffered saline (PBS) (137 mM NaCl, 2.7 mM KCl, 10 mM Na2HPO4, 2 mM KH2PO4) and inoculated in Roswell Park Memorial Institute (RPMI) 1640 medium supplemented with L-glutamine and buffered to pH 7.0 with 165 mM 3-(N-morpholino)propanesulfonic acid for experiments described below.
In vitro antifungal assays were performed according to broth microdilution susceptibility test from Clinical and Laboratory Standards Institute (CLSI) M27-A3 guidelines with some modifications. Briefly, twofold serial dilutions of each peptide were prepared in 96-well polystyrene microplates to a final volume of 50 μL. Amphotericin B (Amp B; A2942, Sigma-Aldrich), a known antifungal drug, was used as a positive control. Final concentrations of each peptide and Amp B ranged from 100 to 0.78 μM and 16 to 0.03 μg/mL, respectively, except in tests with C. glabrata and C. parapsilosis, where the final peptide concentration ranged from 400 to 0.78 μM. In each plate, wells were included without peptide as a growth control. Then, 50 μL of the adjusted inoculum in RPMI-1640 medium were added to each well to a final concentration of 2 × 10^3 cells/mL for Candida spp. and 10^4 cells/mL for C. neoformans strains. The plates were incubated at 37°C for 24 and 48 h, respectively. […]

[2] = Circular dichroism, α-helix content; assay type: physicochemical; conditions: CD, 0.2 mg/mL, 37°C, from [θ]208
Method: Circular dichroism (CD) assays were carried out using Jasco J-815 spectropolarimeter equipped with a Peltier-type temperature controller. Peptides (0.2 mg/mL) were analyzed in water at 37°C in absence or the presence of trifluoroethanol (TFE) (10, 30, and 50%). The mean spectrum of three consecutive experiments was corrected for the baseline buffer contribution. The observed ellipticities were converted into molar ellipticity ([θ]) based on molecular mass per residue of 115 Da ([Adler et al., 1973]). The α helix secondary structure content (fθ) was estimated considering the values of [θ]208 nm as a function of TFE concentration using the following equation ([Greenfield and Fasman, 1969]): […]

[3] = test system: human erythrocytes; test: Hemolytic assay; assay type: cell-based; conditions: 1 h, 540 nm; for Hemolysis: all the tested concentrations (100 to 0.78 μM), 3% hematocrit in PBS
Text: Considering the potential use of the AMPs as treatment against pathogens, even if in a more distant future, some of their properties against host cells should be addressed. To achieve this goal, we have performed hemolytic assay to evaluate if these molecules are toxic or harmless to red blood cells. Further, we have also tested the possible cytotoxicity of those peptides against other mammalian cell types by following the cell viability score after treatment. The solution of human red blood cells was treated with the peptide at levels ranging from 100 to 0.78 μM. Whole human blood was collected from healthy donors in vials with ethylenediaminetetraacetic acid (EDTA). The red blood cells were separated by centrifugation and resuspended in PBS. After the centrifugation (800 g, 5 min at 4 ± 1°C) the supernatant was removed and the red blood cells pellet was resuspended to a 3% hematocrit in sterile water (considered as 100% hemolysis) and PBS (taken as blank for spectrophotometric measurement). Fifty microliters of the 3% cell suspension in PBS were added to different final concentrations of the peptide (v/v) in a 96-well polystyrene microplate and then incubated for 1 h ([Nahar et al., 2008]; [Zhao et al., 2009]; [Qi et al., 2010]). The microplates were centrifuged and the supernatant was collected and analyzed at 540 nm using a microplate spectrophotometer. The percentage of hemolysis was calculated relative to the positive control as performed by [Nahar et al. (2008)]. The procedures were approved by the Ethics Committee on Human Research of Faculty of Medicine/University of Brasília (UnB) and conform to FDA standards (UnBDoc no. 66704/2016).

[4] = test system: C. neoformans (H99 serotype A); test: microbe, parasite or virus in culture; assay type: cell-based, Cryptococcus neoformans var. grubii; conditions: RPMI-1640 pH 7.0, 10^4 cells/mL, 37°C, 48 h, shaking 200 rpm; at least three experiments; read-out: Minimum inhibitory concentration, C. neoformans (H99 serotype A)
Text: as §1
(§2) In vitro antifungal assays were performed according to broth microdilution susceptibility test from Clinical and Laboratory Standards Institute (CLSI) M27-A3 guidelines with some modifications. Briefly, twofold serial dilutions of each peptide were prepared in 96-well polystyrene microplates to a final volume of 50 μL. Amphotericin B (Amp B; A2942, Sigma-Aldrich), a known antifungal drug, was used as a positive control. Final concentrations of each peptide and Amp B ranged from 100 to 0.78 μM and 16 to 0.03 μg/mL, respectively, except in tests with C. glabrata and C. parapsilosis, where the final peptide concentration ranged from 400 to 0.78 μM. In each plate, wells were included without peptide as a growth control. Then, 50 μL of the adjusted inoculum in RPMI-1640 medium were added to each well to a final concentration of 2 × 10^3 cells/mL for Candida spp. and 10^4 cells/mL for C. neoformans strains. The plates were incubated at 37°C for 24 and 48 h, respectively. The strains of C. neoformans were also incubated with shaking (200 rpm). […] The experiments were performed at least three times on separate dates.

[5] = test system: peritoneal macrophages of BALB/c mice; test: Cytotoxic test using peritoneal macrophages (LDH release); assay type: cell-based, mouse; conditions: 24 h; for Viability of peritoneal macrophages: whole range of peptide concentrations
Method: BALB/c mice were injected with thioglycolate 72 h before peritoneal macrophages were harvested. They were diluted to a concentration of 10^6 cell/mL in RPMI-1640 supplemented with penicillin/streptomycin (100 U/mL, 100 µg/mL), 2 mM L-glutamine, 2 mM non-essential amino acids, 1 mM sodium pyruvate (all reagents from Sigma-Aldrich, St Louis, MO, USA) and 10% fetal bovine serum (FBS), and incubated in 96-well polystyrene microplates at 37°C, 5% CO2 for 24 h. The peptides were added then and cells were further incubated for 24 h as described previously ([Cruz et al., 2005]). Three independent experiments were performed. Cytotoxic activity was evaluated by the release of cytoplasmic enzyme lactate dehydrogenase due to cell lysis using the Cytotox kit (Promega). Briefly, at the end of the incubation period, supernatants were collected, the adhered cells were washed and the toxicity was determined according to the manufacturer’s protocol. The procedures were approved by the Ethics Committee on Animal Research of Institute of Biology (UnBDOC 52657/2011)/University of Brasília (UnB).

[6] = test system: C. albicans (SC5314); test: microbe, parasite or virus in culture; assay type: cell-based, Candida albicans; conditions: RPMI-1640 pH 7.0, 2 × 10^3 cells/mL, 37°C, 24 h; complete inhibition of visible growth; at least three experiments; read-out: Minimum inhibitory concentration, C. albicans (SC5314)
Text: as §1, §2

[7] = test system: C. glabrata (ATCC 90030); test: microbe, parasite or virus in culture; assay type: cell-based, Candida glabrata; conditions: RPMI-1640 pH 7.0, 2 × 10^3 cells/mL, 37°C, 24 h; peptides 400 to 0.78 μM; at least three experiments; read-out: Minimum inhibitory concentration, C. glabrata (ATCC 90030)
Text: as §1, §2

[8] = test system: C. neoformans (B3501 serotype D); test: microbe, parasite or virus in culture; assay type: cell-based, Cryptococcus neoformans var. neoformans; conditions: RPMI-1640 pH 7.0, 10^4 cells/mL, 37°C, 48 h, shaking 200 rpm; at least three experiments; read-out: Minimum inhibitory concentration, C. neoformans (B3501 serotype D)
Text: as §1, §2

[9] = test system: C. parapsilosis (ATCC 22019); test: microbe, parasite or virus in culture; assay type: cell-based, Candida parapsilosis; conditions: RPMI-1640 pH 7.0, 2 × 10^3 cells/mL, 37°C, 24 h; peptides 400 to 0.78 μM; at least three experiments; read-out: Minimum inhibitory concentration, C. parapsilosis (ATCC 22019)
Text: as §1, §2

[10] = test system: C. tropicalis (ATCC 750); test: microbe, parasite or virus in culture; assay type: cell-based, Candida tropicalis; conditions: RPMI-1640 pH 7.0, 2 × 10^3 cells/mL, 37°C, 24 h; complete inhibition of visible growth; at least three experiments; read-out: Minimum inhibitory concentration, C. tropicalis (ATCC 750)
Text: as §1, §2

| Substance | MIC [4] [µM] | MIC [6] [µM] | MIC [7] [µM] | MIC [8] [µM] | MIC [9] [µM] | MIC [10] [µM] | other results |
| --- | --- | --- | --- | --- | --- | --- | --- |
| EEDDLLGFSEEDLKAIKEHRAKNA-NH2 [ToAcP, anionic peptide from T. obscurus, LT576031] |  |  |  |  |  |  | Antifungal activity in the tested concentrations ([1]; Candida spp. and C. neoformans): did not present antifungal activity |
| FFGTLFKLLSKLIPGLMKLFSKLLER-NH2 [ToAP2S1, modified analog of ToAP2, C-terminally amidated] |  |  |  |  |  |  | α-Helix content (%), TFE 10% ([2]; TFE 10%): 22.9%; α-Helix content (%), TFE 30% ([2]; TFE 30%): 24.3%; α-Helix content (%), TFE 50% ([2]; TFE 50%): 24.7%; α-Helix content (%), water ([2]; water, mean spectrum of three experiments): 16.5%; Antifungal activity in the tested concentrations ([1]; C. albicans, C. glabrata and C. neoformans H99): did not show antifungal activity; Hemolysis curve compared with ToAP2 ([3]; with concentrations up to 25 μM): higher hemolysis curve |
| FFSLIPSLIGGLVSAIK-NH2 [ToAP4, NDBP subfamily 4 peptide from T. obscurus, amidated] |  |  |  |  |  |  | Antifungal activity in the tested concentrations ([1]; Candida spp. and C. neoformans): has not shown antifungal activity |
| FIGMIPGLIGGLISAFK-NH2 [ToAP1] | 25 | 50 | >400 | 12.5 | 200 | 12.5 | Viability of peritoneal macrophages [5]: higher viability; Hemolysis [3]: lower than 50% |
| FIGMIPGLIGGLISAIK-NH2 [ToAP3] | 100 | 25 | >400 | 25 | 100 | 12.5 |  |
| FLGMIPGLIGGLISAFK-NH2 [NDBP-4.23] | 25 | 50 | >400 | 12.5 | 100 | 6.25 | Concentrations showing low cytotoxicity ([5]; threshold of acceptable cytotoxicity 50% viability, three independent experiments): < 25 µM; Hemolysis [3]: lower than 50% |
| GILGKIWEGVKSLI [NDBP-5.8] | 100 | 100 | >400 | 50 | 200 | 25 |  |
| ILSAIWSGIKSLF-NH2 [NDBP-5.7] | 25 | 25 | >400 | 12.5 | >400 | 25 | Viability of peritoneal macrophages [5]: higher viability; Hemolysis percent ([3]; in concentrations up to 50 μM): higher than 50% |
